“Also recorded” adds a separate entry of the source.
Key:
[1] = parameters: method as in PMID 5646857; settings: cited from earlier work
[2] = tested on: Rb phosphorylation level (T826); experiment: Western blot, Rb and phospho-Rb T826; type: cell-based, human; settings: HCT116, 50–500 nM, 6 h
YB5 cells = experiment: anchorage-dependent clonogenic assay; type: cell-based, human; settings: 2 weeks drug-free
Protocol: Two hundred YB5 cells were seeded per well in 6-well plates. On the following day, YB5 cells were treated with toyocamycin for 24 h or 72 h. Decitabine (10–50 nM for 72 h) was used as a positive control for the loss of clonogenic potential. Drugs and media were replaced each day. After treatment, media was removed. YB5 cells were grown in drug-free media for 2 weeks to allow visible colony formation prior to colony staining (0.5% methylene blue in 50% methanol). YB5 colonies were counted manually.

CDK4/Cyclin D3 = molecular target: T1, CDK4/Cyclin D3 (Homo sapiens, UniProt P11802); experiment: in vitro kinase assay CDK4/Cyclin D3 (Kinase-Glo Plus); type: biochemical
T1 construct: purchased BPS Bioscience
Protocol: The in vitro enzymatic assays were conducted at BPS Bioscience. CDK9/Cyclin T1, CDK2/Cyclin 2A, CDK4/Cyclin D3, and CDK6/Cyclin D3 enzymatic activities were tested with an ATP Kinase-Glo Plus Luminescence kinase assay kit (Promega, V6073, Madison, WI, USA), while the CDK7/Cyclin H/MAT1 activities were tested using ADP-Glo Kinase (Promega, V6930). These assays measure kinase activity by quantifying the amount of ATP or ADP remaining in solution following a kinase reaction. The luminescent signal from the assay is correlated to the amount of ATP or ADP present and is inversely correlated to the kinase activity. The compounds were diluted to 10% DMSO and were added to the reaction so that the final concentration of DMSO was 1% in all reactions. All enzymatic reactions were conducted at 30 °C for 60 min. […] After the enzymatic reaction, the luminescence signal was measured using a BioTek Synergy 2 microplate reader (Agilent, Santa Clara, CA, USA). Kinase activity assays were performed in duplicate at each concentration and the percent of kinase activity was calculated as a ratio of luminescence intensities in the absence or in presence of the compounds. […] IC50 values were determined by the concentration causing a half-maximal percent activity (BPS Bioscience, San Diego, CA, USA).

CDK9 = experiment: Western blot, CDK9 protein level; type: cell-based, human; settings: HCT116, 50–500 nM, 6 h
Protocol: YB5 cells were harvested in 50 mM Tris-HCl, 1% NP-40, 1 mM EDTA, 1 mM EGTA, 0.25% sodium deoxycholate, 150 mM NaCl, 50 mM sodium fluoride, and 1X Complete protease cocktail (Roche, Basel, Switzerland) with 1 mM PMSF. The total protein concentration was measured in all samples by standard BCA protocol (Pierce-23225, Thermo Scientific, Waltham, MA, USA) to ensure that an equal amount of protein was added to each sample. Protein extracts were run on 12% SDS–PAGE precast gels (Bio-Rad, Hercules, CA, USA, 345-0118). Proteins were transferred to polyvinylidene difluoride (PVDF) membranes in 10 mmol/L CAPS (pH-11) containing 10% methanol and detected by using specific primary antibodies, horseradish peroxidase–conjugated secondary antibodies (GE Healthcare, Chicago, IL, USA), and an enhanced chemiluminescence reagent (Pierce). PVDF membranes were incubated with specific primary antibodies (actin—A5441, Sigma, St. Louis, MO, USA; HA-tagged—H9608, Sigma; FLAG-tagged—F3165, Sigma). FLAG- and HA-tagged CDK9 plasmids were a generous gift from Dr Bassel E. Sawaya (Temple University). […] After sonication, total protein concentrations were determined using Bradford protein assay. […] Band intensity quantifications were calculated using ImageJ software, edition 1.53 [27].

[3] = cell viability by Viacount, HCT116; type: cell-based; settings: human, HCT116 colon cancer cells; 24 and 72 h, 50 nM to 50 µM, highest doses; read-out: cell viability relative to untreated cells
Protocol: Cell viability was measured in YB5 and HCT166 cells using Viacount (Luminex, Austin, TX, USA, 4000-0040) on a Guava flow cytometer (Millipore, Burlington, MA, USA). Colon cancer cells were grown in 96-well plates in the same conditions as in the drug screen and treated with toyocamycin and known CDK9 inhibitor BAY1251152 (Selleckchem, Houston, TX, USA). Cell culture media of each well was collected to harvest floating dead cells and kept aside for later. Cells were trypsinized (0.25% trypsin, Gibco, Waltham, MA, USA) for 5 min at 37 °C. Cell culture media of each well was added back to their corresponding wells to stop trypsinization and mixed thoroughly to obtain a single cell suspension. Viacount solution (Luminex, Austin, TX, USA, 4000-0040, 25 μL) was added to each well, and incubated (5 min at room temperature, in the dark) prior to cell viability analysis on the Guava flow cytometer.

histone 3 and histone 4 = experiment: histone acetylation by mass spectrometry; type: cell-based, human; settings: eleven lysine residues, YB5 cells
Protocol: As described previously, histone proteins were acid-extracted (0.2 N HCl) for 16 h. Histone acetylation levels were quantified on histone 3 and histone 4 by a Thermo TSQ Quantum Access triple quadrupole (QqQ) mass spectrometer (Thermofisher Scientific, Waltham, MA, USA).

T1 sequence (P11802 whole entry): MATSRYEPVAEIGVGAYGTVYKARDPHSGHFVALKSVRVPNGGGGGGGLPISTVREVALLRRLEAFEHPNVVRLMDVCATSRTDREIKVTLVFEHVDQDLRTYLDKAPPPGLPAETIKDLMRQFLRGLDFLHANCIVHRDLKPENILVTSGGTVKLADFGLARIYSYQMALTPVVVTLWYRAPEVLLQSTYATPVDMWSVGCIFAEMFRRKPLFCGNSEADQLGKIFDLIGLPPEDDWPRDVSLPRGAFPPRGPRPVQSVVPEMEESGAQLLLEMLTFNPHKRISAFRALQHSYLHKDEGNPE
T1 sequence (P30281 whole entry partner): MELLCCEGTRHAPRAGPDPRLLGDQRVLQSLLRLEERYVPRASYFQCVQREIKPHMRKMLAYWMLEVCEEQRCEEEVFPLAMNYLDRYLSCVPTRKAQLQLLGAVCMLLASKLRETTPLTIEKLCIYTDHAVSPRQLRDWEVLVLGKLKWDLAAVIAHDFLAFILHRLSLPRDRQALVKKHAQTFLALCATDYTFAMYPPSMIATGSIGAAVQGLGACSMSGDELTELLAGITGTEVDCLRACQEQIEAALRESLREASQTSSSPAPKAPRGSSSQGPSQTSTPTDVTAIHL

N#Cc1cn([C@@H]2O[C@H](CO)[C@@H](O)[C@H]2O)c2ncnc(N)c12 [toyocamycin, 7-Deaza-7-cyanoadenosine]
systemic toxic effects ([1]; 10–200 µg/kg for 5 days, intravenous infusion over 1–2 h, twenty-three cancer patients): No systemic toxic effects were observed | local toxicity ([1]; patients receiving the highest doses, intravenous infusion): local toxicity at the site of injection (severe phlebitis) | Rb and its phosphorylated form (T826) [2]: did not change | colony formation (YB5 cells; 10 nM, 24 h treatment): completely abrogated colony formation; also recorded: full eradication of the clonogenic potential | colony formation (YB5 cells; 10–50 nM, 72 h treatment): fully abolished colony formation | IC50 (CDK4/Cyclin D3): 15 µM | CDK9 levels (CDK9): did not change | viability [3]: > 50% | histone 3 and 4 lysine acetylation levels (histone 3 and histone 4): did not modify lysine acetylation levels
